In ChEMBL document CHEMBL1159288, “Anti-AIDS agents, 21. Triterpenoid saponins as anti-HIV principles from fruits of Gleditsia japonica and Gymnocladus chinensis, and a structure-activity correlation” (J Nat Prod, 1995) one finds selectivity ratio, EC50 and IC50 data, which are given here for 17 compounds.

SMILES strings stand for the structures.

Data set [1] can be described thus: Therapeutic index, ratio of IC50 for human H9 cells to EC50 for HIV1 3B. The format is cell-based. The note with it: H9 cells (cytotoxicity) and HIV-1 3B (antiviral), read-out: TI.
Data set [2] relates to Human immunodeficiency virus 1. In words: Antiviral activity against HIV1 3B in human H9 cells assessed as inhibition of viral replication after 3 days by p24 antigen capture assay. The class given is functional, organism-based. The note with it: Human immunodeficiency virus 1, 3B, H9, 72 h.
For another data set, the system named is H9. In words: Cytotoxicity against human H9 cells after 3 days. The format is cell-based. Particulars: H9, 72 h.

Broadly, the EC50 is the concentration that produces a half-maximal response. As a reminder, the IC50 is the concentration that gives 50% inhibition. Low values mean higher potency, high ones lower potency. For the compound `CC1(C)C[C@@H]2C3=CC[C@@H]4[C@@]5(C)C[C@H](O)[C@H](O[C@@H]6O[C@H](CO[C@@H]7OC[C@H](O)[C@H](O)[C@H]7O[C@@H]7OC[C@@H](O)[C@H](O)[C@H]7O)[C@@H](O)[C@H](O)[C@H]6O)[C@@](C)(CO)[C@@H]5CC[C@@]4(C)[C@]3(C)C[C@H](O)[C@@]23C[C@@H]1OC3=O`, the selectivity ratio in data set [1] was > 1. The EC50 in data set [2] was determined as 100 µM. In the data set on H9, the half-inhibitory concentration (IC50) is > 100 µM.
Turning to `CCCCC(=O)O[C@H]1CC[C@]2(C)[C@H]3CC=C4[C@H]5CC(C)(C)CC[C@]5(C(=O)OC)[C@H](OC(=O)CCCC)C[C@@]4(C)[C@]3(C)CC[C@H]2C1(C)C`, the selectivity ratio in data set [1] stood at 1.8. Also, the EC50 in data set [2] amounted to 31 µM. This compound also had a half-maximal inhibitory concentration (IC50) in the data set on H9 of 54 µM.
As for `C[C@@H]1O[C@@H](OC[C@H]2O[C@@H](OC(=O)[C@]34CCC(C)(C)C[C@@H]3C3=CC[C@@H]5[C@@]6(C)CC[C@H](O[C@@H]7O[C@H](CO[C@@H]8OC[C@H](O)[C@H](O)[C@H]8O[C@@H]8OC[C@@H](O)[C@H](O)[C@H]8O)[C@@H](O)[C@H](O)[C@H]7O)C(C)(C)[C@@H]6CC[C@@]5(C)[C@]3(C)C[C@H]4O)[C@H](O[C@@H]3O[C@@H](C)[C@H](O[C@@H]4OC[C@@H](O)[C@H](O[C@@H]5OC[C@@H](O)[C@H](O)[C@H]5O)[C@H]4O)[C@@H](O)[C@H]3O)[C@@H](O)[C@@H]2O)[C@H](O)[C@H](O)[C@H]1O`, in data set [2], the concentration giving a half-maximal response (EC50) is > 100 µM. The IC50 with H9 turned out to be 43 µM.
Consider `CCCC(=O)O[C@H]1CC[C@]2(C)[C@H]3CC=C4[C@H]5CC(C)(C)CC[C@]5(C(=O)OC)[C@H](O)C[C@@]4(C)[C@]3(C)CC[C@H]2C1(C)C`, for which, in data set [1], the selectivity ratio amounted to 1. Besides, the EC50 in data set [2] stood at 27 µM. In addition, in the data set on H9, the concentration for half-maximal inhibition (IC50) came to 27 µM.
Take `CC1(C)C[C@@H]2C3=CC[C@@H]4[C@@]5(C)C[C@H](O)[C@H](O)[C@@](C)(CO)[C@@H]5CC[C@@]4(C)[C@]3(C)C[C@H](O)[C@@]23C[C@@H]1OC3=O`: in data set [1], the selectivity ratio was found to be 5. In addition, the concentration for a half-maximal effect (EC50) in data set [2] amounted to 8 µM. The IC50 in the data set on H9 turned out to be 40 µM.
Consider `CCCCC(=O)O[C@H]1CC[C@]2(C)[C@H]3CC=C4[C@H]5CC(C)(C)CC[C@]5(C(=O)OC)[C@H](O)C[C@@]4(C)[C@]3(C)CC[C@H]2C1(C)C`, for which the selectivity ratio in data set [1] was found to be 5.9. In data set [2], the half-maximal effective concentration (EC50) worked out at 30 µM. Further, it took 180 µM to reach half-maximal inhibition in the data set with H9 (IC50).
On to `CC(=O)O[C@H]1CC[C@]2(C)[C@H]3CC=C4[C@H]5CC(C)(C)CC[C@]5(C(=O)O)[C@H](OC(C)=O)C[C@@]4(C)[C@]3(C)CC[C@H]2C1(C)C`, for which, in data set [1], the selectivity ratio worked out at 5.4. In addition, the EC50 in data set [2] turned out to be 2.3 µM. In the data set with H9, this compound registered a half-inhibitory concentration (IC50) of 13 µM.
For `C=C[C@](C)(CC/C=C(\C)C(=O)O[C@H]1C[C@@]2(C(=O)O[C@@H]3O[C@H](CO[C@@H]4O[C@@H](C)[C@H](O)[C@@H](O)[C@H]4O)[C@@H](O)[C@H](O)[C@H]3O[C@@H]3O[C@@H](C)[C@H](O[C@@H]4OC[C@@H](O)[C@H](O[C@@H]5OC[C@@H](O)[C@H](O)[C@H]5O)[C@H]4O)[C@@H](O)[C@H]3O)[C@H](CC1(C)C)C1=CC[C@@H]3[C@@]4(C)C[C@H](O)[C@H](O[C@@H]5O[C@H](CO[C@@H]6OC[C@H](O)[C@H](O)[C@H]6O[C@@H]6OC[C@@H](O)[C@H](O)[C@H]6O)[C@@H](O)[C@H](O)[C@H]5O)[C@@](C)(CO)[C@@H]4CC[C@@]3(C)[C@]1(C)C[C@@H]2O)O[C@@H]1OC[C@H](OC(=O)CC(C)C)[C@H](O[C@@H]2O[C@H](CO)[C@@H](O)[C@H](O)[C@H]2O)[C@H]1O` [GYMNOCLADUS SAPONIN G], in data set [1], the selectivity ratio is 5.2. In addition, in data set [2], the 50% effective concentration (EC50) was 2.7 µM. The compound further returned an IC50 in the data set on H9 of 14 µM.
As to `CC1(C)CC[C@]2(C(=O)O)[C@H](O)C[C@]3(C)C(=CC[C@@H]4[C@@]5(C)CC[C@H](O[C@@H]6O[C@H](CO[C@@H]7OC[C@H](O)[C@H](O)[C@H]7O[C@@H]7OC[C@@H](O)[C@H](O)[C@H]7O)[C@@H](O)[C@H](O)[C@H]6O)C(C)(C)[C@@H]5CC[C@]43C)[C@H]2C1`, the concentration for a half-maximal effect (EC50) in data set [2] was > 100 µM. The same compound gave an IC50 with H9 of 37 µM.
For `COC(=O)[C@]12CCC(C)(C)C[C@@H]1C1=CC[C@@H]3[C@@]4(C)CC[C@H](O)C(C)(C)[C@@H]4CC[C@@]3(C)[C@]1(C)C[C@H]2O` [METHYL ECHINOCYSTATE], in data set [1], the selectivity ratio was found to be 1.6. Further, in data set [2], the EC50 came out at 3.1 µM. In addition, the IC50 in the data set with H9 was determined as 4.9 µM.
Regarding `COC(=O)[C@]12CCC(C)(C)C[C@@H]1C1=CC[C@@H]3[C@@]4(C)CC[C@H](OC(C)=O)C(C)(C)[C@@H]4CC[C@@]3(C)[C@]1(C)C[C@H]2O`, in data set [1], the selectivity ratio is 1.5. The EC50 in data set [2] is 5.1 µM. This compound had an IC50 in the data set on H9 of 7.6 µM.
With `CCCC(=O)O[C@H]1CC[C@]2(C)[C@H]3CC=C4[C@H]5CC(C)(C)CC[C@]5(C(=O)OC)[C@H](OC(=O)CCC)C[C@@]4(C)[C@]3(C)CC[C@H]2C1(C)C`, the selectivity ratio in data set [1] is > 11. The EC50 in data set [2] was 15 µM. Further, the 50% inhibitory concentration (IC50) in the data set on H9 is > 160 µM.
Regarding `CC1(C)CC[C@]2(C(=O)O)[C@H](O)C[C@]3(C)C(=CC[C@@H]4[C@@]5(C)CC[C@H](O)C(C)(C)[C@@H]5CC[C@]43C)[C@@H]2C1` [ECHINOCYSTIC ACID], in data set [1], the selectivity ratio came to 1.8.
Consider `COC(=O)[C@]12CCC(C)(C)C[C@@H]1C1=CC[C@@H]3[C@@]4(C)CC[C@H](O[C@@H]5O[C@H](CO[C@@H]6OC[C@H](O)[C@H](O)[C@H]6O[C@@H]6OC[C@@H](O)[C@H](O)[C@H]6O)[C@@H](O)[C@H](O)[C@H]5O)C(C)(C)[C@@H]4CC[C@@]3(C)[C@]1(C)C[C@H]2O`, for which, in data set [1], the selectivity ratio came out at 2.2. The concentration giving a half-maximal response (EC50) in data set [2] is 9.9 µM. The same compound yielded a 50% inhibitory concentration (IC50) in the data set on H9 of 22 µM.
Regarding `CC1(C)CC[C@]2(C(=O)O)[C@H](O)C[C@]3(C)C(=CC[C@@H]4[C@@]5(C)CC[C@H](O[C@@H]6O[C@H](CO[C@@H]7OC[C@H](O)[C@H](O)[C@H]7O)[C@@H](O)[C@H](O)[C@H]6O)C(C)(C)[C@@H]5CC[C@]43C)[C@H]2C1`, the selectivity ratio in data set [1] is 3.8. The EC50 in data set [2] came out at 13 µM. Also, the half-maximal inhibitory concentration (IC50) in the data set with H9 stood at 50 µM.
Consider `CC1(C)CC[C@]2(C(=O)O)[C@H](O)C[C@]3(C)C(=CC[C@@H]4[C@@]5(C)CC[C@H](O)C(C)(C)[C@@H]5CC[C@]43C)[C@H]2C1` [ECHINOCYSTIC ACID], for which the EC50 in data set [2] worked out at 42 µM. Also, in the data set on H9, the IC50 is 74 µM.
Turning to `C=C[C@@](C)(O)CC/C=C(\C)C(=O)O[C@H]1[C@H](OC[C@H]2O[C@@H](OC(=O)[C@]34CCC(C)(C)C[C@@H]3C3=CC[C@@H]5[C@@]6(C)CC[C@H](O[C@@H]7O[C@H](CO[C@@H]8OC[C@H](O)[C@H](O)[C@H]8O[C@@H]8OC[C@@H](O)[C@H](O)[C@H]8O)[C@@H](O)[C@H](O)[C@H]7O)C(C)(C)[C@@H]6CC[C@@]5(C)[C@]3(C)C[C@H]4O)[C@H](O[C@@H]3O[C@@H](C)[C@H](O[C@@H]4OC[C@@H](O)[C@H](O[C@@H]5OC[C@@H](O)[C@H](O)[C@H]5O)[C@H]4O)[C@@H](O)[C@H]3O)[C@@H](O)[C@@H]2O)O[C@@H](C)[C@H](O)[C@H]1OC(=O)/C(=C/CC[C@](C)(O)C=C)CO` [GLEDITSIA SAPONIN C], in data set [1], the selectivity ratio turned out to be 8.9. Moreover, the EC50 in data set [2] came out at 1.1 µM. The compound further returned an IC50 in the data set on H9 of 9.8 µM.
